From patent US20040048260A1, “Transfection of nucleic acid” (priority 2002, published 2004)

How the values were obtained:
HeLa cells [1] = assay: Transfection of HeLa cells with EGFP plasmid on glass slides tethered with DOTAP or PEI; type: cell-based; conditions: HeLa cells on glass slides printed with gelatin or chitosan and tethered coating, 24 hours
Procedure: Glass slides were tethered with DOTAP or PEI and used to transfect HeLa cells.
More specifically, borosilicate glass slides (VWR Scientific, Media, Pa.) were cleaned with Linbro 7× detergent (ICN Biomedicals, Inc., Aurora, Ohio), diluted 1:3 (v/v) in deionized water, and baked at 450° C. for 4 hr. The slides were then printed with gelatin or chitosan by microcontact printing using polydimethylsiloxane (PDMS; Sylgard 184; Dow Corning, Midland, Mich.) elastomer stamps. See Kam L. et al., J Biomed Mater Res. 55: 487-495 (2001). One milliliter of 10 nM DOTAP solution and 20 microgram/ml PEI solutions were respectively overlaid onto two set of slides for one minute. The slides were then briefly rinsed with Dulbecco's modified Eagle's medium (DMEM; Gibco BRL, Great Island, N.Y.) before use.
HeLa cells were mixed with the EGFP plasmid and seeded onto slides that were placed in 100 mm cell culture dishes containing the above-mentioned complete medium.

[2] = tested on: fluorescent-labeled oligonucleotide; assay: Capture of fluorescent-labeled oligonucleotide by coated plates (fluorescent microscope); type: binding; conditions: 0.1 microgram oligonucleotide per well in 100 microliters complete medium
Procedure: (§1) Standard 96-well plates were coated with 1,2 bis(oleoyloxy)-3-(trimethylammonio)propane (DOTAP; purchased from Avanti, Alabaster, Ala.), a cationic lipid. More specifically, 50-microliter aliquots of 2.5 nM, 5 nM, 10 nM, 40 nM, 60 nM, and 80 nM DOTAP methanolic solutions were added to the wells of six sets of the 96-well plates respectively. The plates were then dried overnight in a vacuum-drier and stored in a dessicator until use.
In another experiment, 0.1 microgram of fluorescent-labeled oligonucleotide was added to each well of the coated plates containing 100 microliters of the above-mentioned medium. The plates were then observed under a fluorescent microscope. The fluorescence was detected only on the coated surfaces but not in the medium.

HeLa cells [3] = assay: Transfection of HeLa cells with EGFP plasmid on coated 96-well plates; type: cell-based; conditions: 24 hr
Description: The coated plates prepared in Example 1 were used to transfect HeLa cells with an expression plasmid encoding Enhanced Green Fluorescent Protein (EGFP; purchased from Clontech, Inc., Palo Alto, Calif.). […] Before transfection, 1×10^6 HeLa cells were harvested and resuspended in 5 milliliters of the complete medium described in Example 1. 1 microgram of the EGFP plasmid was mixed with the cells. The mixture was subsequently placed into the coated plates (about 5,000 cells per well). After the cells had grown on the plates for 24 hr, pictures were taken under a fluorescent microscope.
Standard 96-well plates were coated with polyethylenimine […], a cationic polymer. More specifically, PEI (MW 25,000 Daltons) was purchased from Sigma-Aldrich (St. Louis, Mo.) and dissolved in deionized water to reach a concentration of 10 mg/ml. Each PEI solution was passed through a 0.45-micrometer filter membrane. This filtrate was used as the PEI stock solution and stored at 4° C. To coat the plates, the stock solution was diluted with sterile deionized water to 20 microgram/ml and a 10-microliter aliquot was added to each well of 96-well plates. The plates were dried and stored in the manner as described in Example 1.
To conduct transfection, HeLa cells were mixed with the EGFP plasmid in the complete medium described in Example 1 and placed onto the PEI-coated plates. […]

[4] = Stability of DOTAP coating on 96-well plates under complete medium, examined by microscope; type: physicochemical
Procedure: as §1
In one experiment, 100 microliters of a complete medium (i.e., RPMI medium containing 10% fetal calf serum, 50 units ml^−1 penicillin, and 50 micrograms ml^−1 streptomycin) was added to each well of the coated plates. The coated surfaces and the overlaying medium were then examined under a microscope at 6-hr intervals for 24 hr.

With `CCCCCCCC/C=C\CCCCCCCC(=O)OCC(C[N+](C)(C)C)OC(=O)CCCCCCC/C=C\CCCCCCCC` (stereo not drawn) [DOTAP, 1,2 bis(oleoyloxy)-3-(trimethylammonio)propane] the “cells found to express GFP” value (HeLa cells [1]) was 80%, the “capture of nucleic acid (location of fluorescence)” value [2] was “effectively capture nucleic acid” and the “cell shape / spreading on the coated plates” value (HeLa cells [3]; HeLa cells, microscopic views) was “spread unexpectedly well”. For the same compound, the “cells expressing GFP / transfected (of total HeLa cells)” value (HeLa cells [3]; coated 96-well plates, fluorescent microscope, PEI density greater than 0.3 microgram/cm^2) was “more than 80%”, the “liposome-like particles on the coated surfaces or in the medium” value ([4]; complete medium, 24 hr, all plates) was “no liposome-like particles were found” and the “change of coated surfaces under complete medium” value ([4]; plates coated with 2.5-80 nM DOTAP solutions, examined at 6-hr intervals for 24 hr) was “no difference”.
